A word on the AUC(0-inf): it is the area under the concentration-time curve extrapolated to infinity. What is called AUC(0-t) is the area under the concentration-time curve up to a stated or last time point. What is called Cmax is the maximum level reached in the sampled fluid or tissue. The IC50 is the concentration that inhibits the measured activity by half.

Results on 6 compounds are retold here after patent US20250154142A1, “THIADIAZOLE-SUBSTITUTED COMPOUND, PHARMACEUTICAL COMPOSITIONS THEREOF, AND APPLICATIONS THEREOF” (Shanghai Yingli Pharmaceutical Co., Ltd., priority 2023, published 2025).

Data set [1] can be described thus: Pharmacokinetic studies in mice after intravenous and oral administration. Type of data set: in vivo. The note with it: mouse, male CD-1 mice, plasma. The procedure:
After intravenous and oral administration to male C57BL/6J mice or male CD-1 mice, plasma samples were collected through the orbital venous plexus at 8-9 time points (e.g., 5 min, 15 min, 30 min, 1 h, 2 h, 4 h, 7 h, 24 h or 5 min, 15 min, 30 min, 1 h, 2 h, 4 h, 6 h, 8 h, 24 h). The collected blood samples were transferred to microcentrifuge tubes containing EDTA-K2 anticoagulant, and the […] were centrifuged for 5 min at 4° C. and 4000 g. The supernatants were stored in a refrigerator at −75° C.±15° C. The concentrations of the compounds in the plasma at the different time points were detected by LC-MS/MS and the relevant pharmacokinetic parameters were calculated using the WinNonlin software

The target of the next data set is T1, PARG (389-976) (Homo sapiens, UniProt Q86W56).
T1 construct: 5 μL of PARG (389-976) (manufactured by Chempartner Chemical Co., Ltd.); purchased Chempartner Chemical Co., Ltd
T1 sequence (Q86W56 389-976): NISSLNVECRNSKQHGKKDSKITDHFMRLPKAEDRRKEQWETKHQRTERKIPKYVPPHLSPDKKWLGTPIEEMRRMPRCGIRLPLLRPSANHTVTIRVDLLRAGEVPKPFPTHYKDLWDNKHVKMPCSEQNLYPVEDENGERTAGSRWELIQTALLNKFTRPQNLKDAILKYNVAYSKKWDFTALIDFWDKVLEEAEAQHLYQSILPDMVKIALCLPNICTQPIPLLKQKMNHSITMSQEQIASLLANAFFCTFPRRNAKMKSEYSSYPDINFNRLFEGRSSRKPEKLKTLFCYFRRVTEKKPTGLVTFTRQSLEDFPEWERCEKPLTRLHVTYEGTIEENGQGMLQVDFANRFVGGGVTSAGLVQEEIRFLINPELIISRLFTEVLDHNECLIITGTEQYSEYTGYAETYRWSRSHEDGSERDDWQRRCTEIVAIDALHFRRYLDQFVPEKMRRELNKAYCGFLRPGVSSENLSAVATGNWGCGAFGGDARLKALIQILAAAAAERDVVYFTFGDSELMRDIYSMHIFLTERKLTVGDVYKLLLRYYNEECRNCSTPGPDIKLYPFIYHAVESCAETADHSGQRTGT
Description: PARG enzyme inhibition assay (TR-FRET). Type of data set: biochemical. The note with it: Bio PARylated His-TEV-PARP1 substrate. The procedure: PARG in vitro assays were conducted in standard 384-well plates in a total volume of 15 μL. 5 μL of PARG (389-976) (manufactured by Chempartner Chemical Co., Ltd.) in buffer (50 mM Tris-HCL 7.5, 30 mM KCl, 1 mM EDTA, 3 mM DTT, tween-20 0.01%, BSA 0.025%) was added at a final concentration of 1.5 pM to the 384-well plates containing the compounds to be tested, which was incubated for 30 min at room temperature. To the above mixture was added 5 μL Bio PARylated His-TEV-PARP1 (2-1014) substrate (manufactured by Chempartner Chemical Co., Ltd.) at a final concentration of 12 nM, after addition, the resulting mixture was incubated for 30 minutes at room temperature. Then to the mixture was added detection reagent (5 μL) which was buffered with 50 mM Tris-HCL 7.5, 30 mM KCl, 1 mM EDTA, 3 mM DTT, tween-20 0.01%, BSA 0.025%, and consisted of 3 μM of compound PDD00017273 and 9 nM Mab anti-6HIS XL665 (Cisbio: 61HISXLA) and 0.9 nM streptavidin affinity terbium cryptate (Cisbio: 610SATLA), all at 3× working concentrations (final concentrations of […], 3 nM and 0.3 nM, respectively). After 120 min incubation in the dark at room temperature, TR-FRET signals were measured at Ex 340 and Em 665 and Em 615. The ratio for each well was calculated as Em 665/Em 615 and the compound inhibition rate was calculated based on the obtained data.

Molecules are shown by their SMILES.

In the case of `C[C@H]1CN(c2cc(S(=O)(=O)NC3(C)CC3)cc3c2cnn3-c2nnc(C(F)(F)F)s2)C[C@H](C)N1` [Compound 1], in data set [1] (intravenous 5 mg/kg), the AUC(0-inf) is 3700 ng·h/mL, the AUC(0-t) amounted to 2540 ng·h/mL and the clearance was 22.5 mL/min/kg. Further, in data set [1] (oral administration 10 mg/kg), the AUC(0-inf) was found to be 2980 ng·h/mL, the AUC(0-t) turned out to be 2610 ng·h/mL and the highest level (Cmax) was 175 ng/mL. This compound registered an IC50 against PARG (389-976) (class symbol) of under 2 nM. Further, inhibition against PARG (389-976) (numeric value) was half-maximal at 0.2 nM (IC50).
Regarding `C[C@H]1CN(c2cc(S(=O)(=O)NC3(C)CC3)cc3c2cnn3-c2nnc(C(F)F)s2)C[C@H](C)N1` [Compound 1′, reference compound], in data set [1] (intravenous 5 mg/kg), the AUC(0-inf) turned out to be 939 ng·h/mL, the AUC(0-t) is 905 ng·h/mL and the clearance was found to be 89.5 mL/min/kg. Besides, in data set [1] (oral administration 10 mg/kg), the AUC(0-inf) turned out to be 929 ng·h/mL, the AUC(0-t) is 725 ng·h/mL and the Cmax is 98.8 ng/mL. On PARG (389-976) (class symbol), this compound returned an IC50 of under 2 nM. At PARG (389-976) (numeric value), this compound displayed an IC50 of 0.21 nM.
Turning to `C[C@H]1CN(c2cc(S(=O)(=O)NC3(C#N)CC3)cc3c2cnn3-c2nnc(C(F)(F)F)s2)C[C@H](C)N1` [Compound 2], the IC50 at PARG (389-976) (class symbol) is under 2 nM; on PARG (389-976) (numeric value), 0.62 nM.
`C[C@H]1CN(c2c(F)c(S(=O)(=O)NC3(C#N)CC3)cc3c2cnn3-c2nnc(C(F)(F)F)s2)C[C@H](C)N1` [Compound 3]: in data set [1] (intravenous 5 mg/kg), the AUC(0-inf) is 2420 ng·h/mL, the AUC(0-t) turned out to be 2410 ng·h/mL and the clearance worked out at 34.8 mL/min/kg. Besides, in data set [1] (oral administration 10 mg/kg), the total exposure AUC(0-inf) is 4080 ng·h/mL, the AUC(0-t) turned out to be 4070 ng·h/mL and the peak level (Cmax) was 513 ng/mL.
As to `C[C@H]1CN(c2c(F)c(S(=O)(=O)NC3(C)CC3)cc3c2cnn3-c2nnc(C(F)(F)F)s2)C[C@H](C)N1` [Compound 4], in data set [1] (intravenous 5 mg/kg), the AUC(0-inf) stood at 2350 ng·h/mL, the AUC(0-t) is 1990 ng·h/mL and the clearance was 35.6 mL/min/kg. In data set [1] (oral administration 10 mg/kg), this compound returned an AUC(0-inf) of 3970 ng·h/mL, an AUC(0-t) of 3260 ng·h/mL and a maximum concentration (Cmax) of 198 ng/mL. The compound also came in with an IC50 at PARG (389-976) (class symbol) of under 2 nM.
For `C[C@H]1CN(c2c(F)c(S(=O)(=O)NC3(C)CC3)cc3c2cnn3-c2nnc(C(F)F)s2)C[C@H](C)N1` [Compound 5], in data set [1] (intravenous 5 mg/kg), the AUC(0-inf) was found to be 1620 ng·h/mL, the AUC(0-t) was found to be 1600 ng·h/mL and the clearance came to 51.6 mL/min/kg. In data set [1] (oral administration 10 mg/kg), this compound displayed an AUC(0-inf) of 2000 ng·h/mL, an AUC(0-t) of 1970 ng·h/mL and a Cmax of 172 ng/mL. Further, the IC50 against PARG (389-976) (class symbol) is under 2 nM.
